Target: T1, Human TRPV3 (Homo sapiens, UniProt Q8NET8)
T1 construct: expressed in transfected cells; host or cells: CHO cells (G-418 selected)
T1 sequence (Q8NET8 1-790): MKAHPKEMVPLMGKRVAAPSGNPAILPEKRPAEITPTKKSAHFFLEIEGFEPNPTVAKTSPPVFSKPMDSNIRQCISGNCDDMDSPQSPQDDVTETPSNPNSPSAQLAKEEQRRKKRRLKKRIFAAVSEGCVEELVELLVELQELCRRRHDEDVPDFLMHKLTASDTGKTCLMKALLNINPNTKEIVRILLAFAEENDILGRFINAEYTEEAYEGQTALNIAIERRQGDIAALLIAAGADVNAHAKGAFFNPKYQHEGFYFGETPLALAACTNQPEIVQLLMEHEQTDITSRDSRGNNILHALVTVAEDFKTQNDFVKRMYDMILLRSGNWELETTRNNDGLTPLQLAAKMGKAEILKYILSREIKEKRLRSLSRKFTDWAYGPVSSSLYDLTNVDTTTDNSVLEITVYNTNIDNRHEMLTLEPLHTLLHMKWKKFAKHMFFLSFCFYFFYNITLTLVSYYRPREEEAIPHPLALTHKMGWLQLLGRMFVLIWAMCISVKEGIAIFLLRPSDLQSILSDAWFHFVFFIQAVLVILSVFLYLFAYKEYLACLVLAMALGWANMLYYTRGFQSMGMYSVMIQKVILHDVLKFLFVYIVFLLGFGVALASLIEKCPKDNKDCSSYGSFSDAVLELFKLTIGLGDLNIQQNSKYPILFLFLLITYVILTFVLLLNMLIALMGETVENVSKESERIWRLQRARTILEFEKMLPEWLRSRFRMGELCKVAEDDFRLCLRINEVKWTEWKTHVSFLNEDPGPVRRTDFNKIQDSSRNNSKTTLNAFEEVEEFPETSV
Assay: 45Calcium uptake assay: inhibition of 2-APB induced cellular uptake of radioactive calcium
Type: cell-based
Conditions: human TRPV3 expressing CHO cells, 2-APB 500 μM
Summary of the method: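 CHO cells stably expressing human TRPV3 (~50,000/well) were preincubated with compounds for 10 min in medium containing 0.1% BSA, 1.8 mM CaCl2 and 0.5% DMSO. Then 500 μM 2-APB and 5 μCi/ml 45Ca2+ were added for 4 min. Lysate radioactivity was expressed as % of maximal uninhibited response, and IC50 came from nonlinear regression, alongside % inhibition at 1.0 and 10.0 μM.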

inhibition at 1 µM (1.0 μM compound, read-out: Percentage inhibition at 1.0 μM): 51.3%
inhibition at 10 µM (10.0 μM compound, read-out: Percentage inhibition at 10.0 μM): 92.5%
SMILES: COc1cccc(CCCC(=O)NC2CCSc3ccc(Cl)cc32)c1OC1CCCC1 (centres unmarked) [Example 104, N-(6-chloro-3,4-dihydro-2H-thiochromen-4-yl)-4-(2-cyclopentyloxy-3-methoxyphenyl)-butanamide]

— patent publication US8487121B2, “Chromane derivatives as TRPV3 modulators” (Glenmark Pharmaceuticals S.A., priority 2007, dated 2013)
